{"source": "paper PMC8877008", "about": "“Synthesis and Structure–Activity Relationship Studies of Benzimidazole-4,7-dione-Based P2X3 Receptor Antagonists as Novel Anti-Nociceptive Agents” (Molecules, 2022)", "key": {"[1]": {"experiment": "Metabolic stability in microsomal fraction, mouse", "format": "in vitro ADME"}, "BBB-PAMPA permeability": {"experiment": "BBB-PAMPA permeability", "format": "in vitro ADME", "conditions": "UV/vis spectrophotometry"}, "hP2X3R": {"molecular_target": "T1, hP2X3R (Homo sapiens, UniProt P56373)", "T1 construct": "expressed in transfected cells", "T1 sequence (P56373 1-397)": "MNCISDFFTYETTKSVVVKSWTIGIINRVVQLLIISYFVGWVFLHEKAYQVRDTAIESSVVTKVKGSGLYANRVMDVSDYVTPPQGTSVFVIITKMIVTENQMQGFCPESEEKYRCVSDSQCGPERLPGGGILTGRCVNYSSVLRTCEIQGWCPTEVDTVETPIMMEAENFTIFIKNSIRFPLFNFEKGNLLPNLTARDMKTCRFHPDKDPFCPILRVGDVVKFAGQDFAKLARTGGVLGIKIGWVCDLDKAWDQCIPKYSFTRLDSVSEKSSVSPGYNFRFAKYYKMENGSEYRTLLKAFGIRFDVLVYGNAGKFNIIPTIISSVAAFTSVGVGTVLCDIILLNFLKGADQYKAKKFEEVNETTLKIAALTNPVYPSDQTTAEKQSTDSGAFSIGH", "experiment": "Calcium influx (Fluo-4) evoked by α,β-meATP in HEK293 cells stably expressing hP2X3R", "format": "cell-based", "conditions": "antagonistic activity; HEK293 cells expressing hP2X3R; agonist at EC70", "description": "For the evaluation of P2XR activities, a cell-based assay system was employed to measure the level of fluorescence emission, based on Fluo-4 dye, during Ca^2+ influx evoked by αβmeATP in HEK293 cells stably expressing hP2X2/3R and hP2X3R. The library containing 8364 representative compounds for the screening of antagonistic activity was provided by the Korea Chemical Bank. The antagonistic activities were evaluated in the presence of P2X3R agonist of the concentration for EC70 value (200–250 nM for hP2X3R and 1–4 μM for hP2X2/3R highly expressed cell lines), and AF353 was used as the positive control antagonist for comparison. For the first round of screening, a single concentration (25 μM) of each library compound was tested to identify initial hit compounds, which were subsequently validated using both concentrations of 25 and 10 μM. Using a cut-off threshold of higher than 50% antagonistic activity and after confirming dose-dependency, 12 main hit compounds were selected.\n(§1) 3.4. Cell-Based Assay: Measurement of Calcium Influx by Fluorescence-Based Fluo-4 Dye Uptake in HEK293 Cells Expressing hP2X2/3 and hP2X3 Receptors\nHuman P2X3-expressing HEK293 cells were grown in DMEM supplemented with 10% fetal bovine serum and 1% antibiotic–antimycotic as a monolayer culture at 37 °C in a humidified atmosphere of 5% CO2. The 96-well black plates used in the experiments were prepared by coating them with 1× poly-D-lysine (A3890401, Thermo-Fisher Scientific Korea, Seoul, South Korea). An aliquot of 40 μL 1× poly-D-lysine was used to treat each of the wells in a flat orientation. After leaving the plates for at least 4 h to absorb the poly-D-lysine, the plates were allowed to dry for at least 6 h. The DMEM used in the culture of HEK293 cells was removed from the dish, followed by application of 3 mL 1× PBS for washing. Removal of 1× PBS was followed by application of 1 mL trypsin/EDTA, and the cells were collected by centrifugation at 1200 rpm for 2 min. The supernatant was removed, and 1 mL fresh DMEM added. The cells were resuspended in media and plates prepared with 4.8 × 10^4 cells/well in 56 μL/well. After 18 h of cell culture in the 96-well black plate, 56 μL of Fluo-4 dye (Fluo-4 Direct^TM Calcium Assay Kit, F10471, Invitrogen, Thermo-Fisher Scientific Korea, Seoul, South Korea) was added to each well, prepared according to the manufacturer’s protocol, and incubated for 50 min~1 h under culturing conditions. Then, 12.4 μL of the appropriate compound solution was added to each well, and the positive control was AF353 (A1612, Sigma Aldrich Korea, Seoul, South Korea) and the negative control was 5% DMSO. Plates were incubated at room temperature and sealed to avoid interference from light for 50 min~1 h. Flexstation 3 and its software provided by Molecular Devices was used for the measurement of fluorescence in real time of treatments using prepared α,β-meATP (M6517, Sigma Aldrich) solution to evoke calcium influx and increased cell membrane potential.\nFor the analysis of antagonistic activities, all data were calculated by Origin Pro 9.1 software provided by Originlab and the fitting of graphs was proceeded by the growth/sigmoidal and hill1 process within no weights for data selections. For the analysis of the behavioral assessments of pain models, all data are expressed as mean ± SEM. The dose–response data are presented as percentages of the maximum possible effect. Statistical significance was analyzed by independent t-test. The criterion for statistical significance was p < 0.05. The statistical analysis was performed using SPSS 25.0 software (IBM Corp., Armonk, NY, USA)."}, "hP2X2/3R": {"molecular_target": "T2, hP2X2/3R (Homo sapiens, UniProt P56373+Q9UBL9)", "T2 construct": "expressed in transfected cells", "T2 sequence (P56373 1-397)": "T1 sequence (P56373 1-397)", "T2 sequence (Q9UBL9 1-471)": "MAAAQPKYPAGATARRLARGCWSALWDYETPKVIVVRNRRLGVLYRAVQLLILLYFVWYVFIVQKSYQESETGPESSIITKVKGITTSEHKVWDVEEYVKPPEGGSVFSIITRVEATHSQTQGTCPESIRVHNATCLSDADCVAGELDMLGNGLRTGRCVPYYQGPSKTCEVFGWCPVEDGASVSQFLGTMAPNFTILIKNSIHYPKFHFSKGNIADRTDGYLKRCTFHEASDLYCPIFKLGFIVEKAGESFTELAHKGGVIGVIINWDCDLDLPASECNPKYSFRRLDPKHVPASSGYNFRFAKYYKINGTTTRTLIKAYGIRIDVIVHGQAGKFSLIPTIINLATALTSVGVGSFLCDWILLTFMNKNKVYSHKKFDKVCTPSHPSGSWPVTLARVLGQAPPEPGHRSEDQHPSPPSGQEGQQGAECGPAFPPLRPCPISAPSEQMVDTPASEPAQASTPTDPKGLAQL", "experiment": "Calcium influx (Fluo-4) evoked by α,β-meATP in HEK293 cells stably expressing hP2X2/3R", "format": "cell-based", "conditions": "antagonistic activity; HEK293 cells expressing hP2X2/3R; agonist at EC70", "description": "For the evaluation of P2XR activities, a cell-based assay system was employed to measure the level of fluorescence emission, based on Fluo-4 dye, during Ca^2+ influx evoked by αβmeATP in HEK293 cells stably expressing hP2X2/3R and hP2X3R. The library containing 8364 representative compounds for the screening of antagonistic activity was provided by the Korea Chemical Bank. The antagonistic activities were evaluated in the presence of P2X3R agonist of the concentration for EC70 value (200–250 nM for hP2X3R and 1–4 μM for hP2X2/3R highly expressed cell lines), and AF353 was used as the positive control antagonist for comparison. […]\nas §1\nHuman P2X3-expressing HEK293 cells were grown in DMEM supplemented with 10% fetal bovine serum and 1% antibiotic–antimycotic as a monolayer culture at 37 °C in a humidified atmosphere of 5% CO2. […] Flexstation 3 and its software provided by Molecular Devices was used for the measurement of fluorescence in real time of treatments using prepared α,β-meATP (M6517, Sigma Aldrich) solution to evoke calcium influx and increased cell membrane potential. […]"}}, "note": "Read-outs that look alike come from different tables or passages of the source."}
{"smiles": "O=C1C(NC2CCN(C(=O)c3ccc(F)c(F)c3)CC2)=C(Cl)C(=O)c2[nH]c(C(F)(F)F)nc21", "note": "[14h, 6-Chloro-5-((1-(3,4-difluorobenzoyl)piperidin-4-yl)amino)-2-(trifluoromethyl)-1H-benzo[d]imidazole-4,7-dione]", "values": [{"measurement": "remaining at 0.5 h", "setting": "[1]; microsomal fraction, species not given, lowest of human, rat, mouse is mouse, read-out: Metabolic stability, % remaining after 30 min incubation (summary)", "result": "> 92", "unit": "%"}, {"measurement": "remaining at 0.5 h", "setting": "[1]; mouse, mouse microsomal fraction, read-out: Metabolic Stability (Microsomal Fr.) % remaining after 30 min", "result": 92.8, "unit": "%"}, {"measurement": "BBB-PAMPA logPe", "setting": "BBB-PAMPA permeability", "result": "<−6.000", "unit": "logPe"}, {"measurement": "IC50", "setting": "hP2X3R", "result": "0.375 ± 0.033", "unit": "µM"}, {"measurement": "IC50", "setting": "hP2X2/3R", "result": 9.1, "unit": "µM"}]}
